Results reported in patent publication US9487510B2, “Substituted heterocyclic acetamides as kappa opioid receptor (KOR) agonists” (Dr. Reddy's Laboratories Ltd., priority 2012, dated 2016).

Columns and labels:
human KOR receptor = human KOR receptor (Homo sapiens, UniProt P41145); assay: IP-One HTRF assay, potency of KOR agonists, dose-response in transiently transfected COS-7 cells; format: cell-based
human KOR receptor, sequence (P41145 whole entry): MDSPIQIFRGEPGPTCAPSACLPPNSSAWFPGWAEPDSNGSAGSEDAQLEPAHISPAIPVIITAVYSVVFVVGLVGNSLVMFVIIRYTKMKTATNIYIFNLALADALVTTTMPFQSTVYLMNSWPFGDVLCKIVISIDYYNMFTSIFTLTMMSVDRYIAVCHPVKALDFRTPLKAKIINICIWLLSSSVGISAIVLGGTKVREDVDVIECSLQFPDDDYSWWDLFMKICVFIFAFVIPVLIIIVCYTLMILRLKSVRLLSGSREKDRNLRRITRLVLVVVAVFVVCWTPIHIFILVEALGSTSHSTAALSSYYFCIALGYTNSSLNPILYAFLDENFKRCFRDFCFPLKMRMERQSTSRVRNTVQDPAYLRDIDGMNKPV

SMILES	EC50 (human KOR receptor) [nM]	melting point [°C]
CN(C(=O)Cc1ccc2oc(=O)n(Cc3ccc(-c4nnn[nH]4)cc3)c2c1)[C@H](CN1CCC(O)C1)c1ccccc1 (stereo in doubt) [Example 104, 2-(3-(4-(1H-tetrazol-5-yl)benzyl)-2-oxo-2,3-dihydrobenzo[d]oxazol-5-yl)-N-((S)-2-((S)-3-hydroxypyrrolidin-1-yl)-1-phenylethyl)-N-methylacetamide]	≤ 50	218 to 220
CN(C(=O)Cc1ccc2c(c1)NC(=O)C2)C(CN1CCCC1)c1cccc(OCC(=O)O)c1.Cl (centres unmarked) [Example 87, 2-(3-(1-(N-methyl-2-(2-oxoindolin-6-yl)acetamido)-2-(pyrrolidin-1-yl)ethyl)phenoxy)acetic acid hydrochloride]	≤ 50	169 to 171
O=C(Cc1ccc2oc(=O)n(Cc3ccc(-c4nnn[nH]4)cc3)c2c1)N[C@H](CN1CC[C@H](O)C1)c1ccccc1 [Example 106, 2-(3-(4-(1H-tetrazol-5-yl)benzyl)-2-oxo-2,3-dihydrobenzo[d]oxazol-5-yl)-N-((S)-2-((S)-3-hydroxypyrrolidin-1-yl)-1-phenylethyl)acetamide]	≤ 50	296 to 297
O=C(Cc1ccc2oc(=O)[nH]c2c1)N[C@H](CN1CC[C@H](O)C1)c1ccccc1 [Example 57, N-((S)-2-((S)-3-hydroxypyrrolidin-1-yl)-1-phenylethyl)-2-(2-oxo-2,3-dihydrobenzo[d]oxazol-5-yl)acetamide]	≤ 50	210 to 211
CN(C(=O)Cc1ccc2oc(=O)[nH]c2c1)C(CN1CCCC1)c1cccc(OCC(=O)O)c1 (stereo in doubt) [Example 90, (R)-2-(3-(1-(N-methyl-2-(2-oxo-2,3-dihydrobenzo[d]oxazol-5-yl)acetamido)-2-(pyrrolidin-1-yl)ethyl)phenoxy)acetic acid]	51 to 100	227 to 229
CN(C(=O)Cc1ccc2c(c1)NC(=O)C2)[C@H](CN1CC[C@H](O)C1)c1ccccc1 [Example 1, N-((S)-2-((S)-3-hydroxypyrrolidin-1-yl)-1-phenylethyl)-N-methyl-2-(2-oxoindolin-6-yl)acetamide]	51 to 100	166 to 168
Cn1c(=O)oc2ccc(CC(=O)N[C@H](CN3CCC(O)C3)c3ccccc3)cc21 (stereo in doubt) [Example 45, N-((S)-2-((S)-3-hydroxypyrrolidin-1-yl)-1-phenylethyl)-2-(3-methyl-2-oxo-2,3-dihydrobenzo[d]oxazol-5-yl)acetamide]	≤ 50	105 to 106
O=C(Cc1ccc2oc(=O)n(Cc3cccc(-c4nn[nH]n4)c3)c2c1)N[C@H](CN1CCC(O)C1)c1ccccc1 (stereo in doubt) [Example 102, 2-(3-(3-(2H-tetrazol-5-yl)benzyl)-2-oxo-2,3-dihydrobenzo[d]oxazol-5-yl)-N-((S)-2-((S)-3-hydroxypyrrolidin-1-yl)-1-phenylethyl)acetamide]	≤ 50	235 to 237
CN(C(=O)Cc1ccc2c(c1)NC(=O)C2)[C@H](CN1CC[C@H](O)C1)c1cccc(-c2nn[nH]n2)c1 [Example 110, N-((S)-1-(3-(2H-tetrazol-5-yl)phenyl)-2-((S)-3-hydroxypyrrolidin-1-yl)ethyl)-N-methyl-2-(2-oxoindolin-6-yl)acetamide]	≤ 50	208 to 210
COc1ccc(COc2cccc([C@@H](CN3CCCC3)NC(=O)Cc3ccc4oc(=O)n(Cc5ccccc5)c4c3)c2)cc1 [Example 58, (S)-2-(3-benzyl-2-oxo-2,3-dihydrobenzo[d]oxazol-5-yl)-N-(1-(3-(4-methoxybenzyloxy)phenyl)-2-(pyrrolidin-1-yl)ethyl)acetamide]	≤ 50	72 to 74
CN(C(=O)Cc1ccc2oc(=O)[nH]c2c1)[C@H](CN1CC[C@H](F)C1)c1cccc(-c2nn[nH]n2)c1 [Example 109, N-((S)-1-(3-(2H-tetrazol-5-yl)phenyl)-2-((S)-3-fluoropyrrolidin-1-yl)ethyl)-N-methyl-2-(2-oxo-2,3-dihydrobenzo[d]oxazol-5-yl)acetamide]	≤ 50	133 to 134
CN1C(=O)Cc2ccc(CC(=O)N(C)[C@H](CN3CCC(O)C3)c3cccc(-c4nn[nH]n4)c3)cc21 (stereo in doubt) [Example 111, N-((S)-1-(3-(2H-tetrazol-5-yl)phenyl)-2-((S)-3-hydroxypyrrolidin-1-yl)ethyl)-N-methyl-2-(1-methyl-2-oxoindolin-6-yl)acetamide]	≤ 50	198 to 200
CN(C(=O)Cc1ccc2oc(=O)n(CC(=O)O)c2c1)[C@H](CN1CC[C@@H](O)C1)C1CCCCC1 [Example 97]	≤ 50	233 to 234
